± gives the standard deviation of the averaged measurements.
Test system: G401
Test: relative viability vs DMSO control (72 h) (fraction); higher = more viable cells
Procedure, shortened: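 Sarcoma cell lines in 384-well plates, seeded to reach 80–90% confluence, were given compound after 24 h and kept 72 h at 37 °C, 5% CO2, with 0.1% DMSO vehicle and a 5 µM positive control. Relative viability came from ATPLite as percent growth, averaged over up to triplicate wells. On the rescaled values, 1 equals full and 0 equals none.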

| SMILES | relative viability (0.00017 µM) | relative viability (0.00051 µM) | relative viability (0.00152 µM) | relative viability (0.00457 µM) | relative viability (0.01372 µM) | relative viability (0.04115 µM) | relative viability (0.1235 µM) | relative viability (0.3704 µM) | relative viability (1.111 µM) | relative viability (3.333 µM) | relative viability (10 µM) |
| --- | --- | --- | --- | --- | --- | --- | --- | --- | --- | --- | --- |
| CO[C@H]1C[C@@H]2CC[C@@H](C)[C@@](O)(O2)C(=O)C(=O)N2CCCC[C@H]2C(=O)O[C@H]([C@H](C)C[C@@H]2CC[C@@H](OP(C)(C)=O)[C@H](OC)C2)CC(=O)[C@H](C)/C=C(\C)[C@@H](O)[C@@H](OC)C(=O)[C@H](C)C[C@H](C)/C=C/C=C/C=C/1C [Ridaforolimus] | 0.919 ± 0.043 | 0.885 ± 0.03 | 0.841 ± 0.071 | 0.793 ± 0.068 | 0.751 ± 0.07 | 0.739 ± 0.056 | 0.744 ± 0.027 | 0.725 ± 0.019 | 0.712 ± 0.012 | 0.681 ± 0.017 | 0.645 ± 0.022 |
| Cc1cnc(Nc2ccc(OCCN3CCCC3)cc2)nc1Nc1cccc(S(=O)(=O)NC(C)(C)C)c1 [Fedratinib] | 1.029 ± 0.0083 | 1.05 ± 0.029 | 1.038 ± 0.0091 | 1.03 ± 0.019 | 1.04 ± 0.011 | 0.997 ± 0.024 | 0.919 ± 0.015 | 0.8157 ± 0.0074 | 0.499 ± 0.0075 | 0.204 ± 0.012 | 0.0136 ± 0.00091 |
| Cn1cc(-c2cc3c(N4CCN(c5ncc([C@@](C)(N)c6ccc(F)cc6)cn5)CC4)ncnn3c2)cn1 [Avapritinib] | 0.895 ± 0.086 | 0.91 ± 0.036 | 0.907 ± 0.046 | 0.901 ± 0.023 | 0.922 ± 0.059 | 0.926 ± 0.074 | 0.918 ± 0.032 | 0.842 ± 0.033 | 0.701 ± 0.044 | 0.627 ± 0.012 | 0.506 ± 0.011 |
| CN1CCN(c2ccc3nc(-c4c(N)c5c(F)cccc5[nH]c4=O)[nH]c3c2)CC1 [Dovitinib] | 1.02 ± 0.045 | 1.014 ± 0.0059 | 1.04 ± 0.021 | 1.018 ± 0.0017 | 1 ± 0.023 | 1.01 ± 0.051 | 0.966 ± 0.034 | 0.92 ± 0.019 | 0.632 ± 0.069 | 0.256 ± 0.013 | 0.13 ± 0.0053 |

Reference: the supplement of paper PMC10883282
